According to ChEMBL document CHEMBL1127108, “Synthesis of ecdysteroid inhibitors of ecdysone biosynthesis. Inhibition of the C-25 hydroxylation” (1993):

Key:
Locusta migratoria [1] = assay: In vitro inhibitory activity of compound on ecdysone biosynthesis in larval prothoracic glands of Locusta migratoria at 10e-5 M concentration; format: functional
Locusta migratoria [2] = assay: In vitro inhibitory activity of compound on ecdysone biosynthesis in larval prothoracic glands of Locusta migratoria; NI: No inhibition was observed; format: functional

## C#CC[C@@H](O)C(C)C1CC[C@H]2[C@@H]3CC=C4C[C@@H](O)CC[C@]4(C)[C@H]3CC[C@]12C (stereo not given in full)
Locusta migratoria [1]
  inhibition at 10 µM: 36%

## CC(C1CCC2C3CC=C4C[C@@H](O)CC[C@]4(C)C3CC[C@@]21C)[C@@H](O)C#C[Si](C)(C)C (stereo not given in full)
Locusta migratoria [2]
  inhibition: No inhibition

## C#CC[C@@H](O)C(C)C1CCC2C3CC=C4C[C@@H](O)CC[C@]4(C)C3CC[C@@]21C (stereo not given in full)
Locusta migratoria [1]
  inhibition at 10 µM: 66%

## C#C[C@H](O)C(C)C1CCC2C3CC=C4C[C@@H](O)CC[C@]4(C)C3CC[C@@]21C (stereo not given in full)
Locusta migratoria [1]
  inhibition at 10 µM: 36%

## C#CC[C@H](O)C(C)C1CC[C@H]2[C@@H]3CC=C4C[C@@H](O)CC[C@]4(C)[C@H]3CC[C@]12C (stereo not given in full)
Locusta migratoria [1]
  inhibition at 10 µM: 37%
